Reference: US20140329863A1 (priority 2011, published 2014)

Columns and labels:
[1] = Toleration studies in mice; details: 210 mg/kg/day for 14 days, mice
in vitro [2] = details: rat, microsomes, pH 7.4
in vitro [3] = details: dog, plasma, pH 7.4
in vitro [4] = details: plasma
in vitro [5] = details: human, plasma
CYP2D6 = target: T1, CYP2D6 (Homo sapiens, UniProt P10635); assay: Cytochrome P450 phenotyping in human liver microsomes, CYP2D6 (quinidine); type: in vitro ADME; details: HLM, 1 μM quinidine
T1 construct: tissue BD Biosciences; host or cells: pooled human liver microsomes
Excerpt: (§1) % Disappearance=[(TC-NADPH TC+NADPH)/TC-NADPH]×100
(§2) for which TC is the test compound.

CYP1A2 = target: T2, CYP1A2 (Homo sapiens, UniProt P05177); assay: Cytochrome P450 phenotyping in human liver microsomes, CYP1A2 (furafylline); type: in vitro ADME; details: HLM, 10 μM furafylline
T2 construct: tissue BD Biosciences; host or cells: pooled human liver microsomes
T2 sequence (P05177 1-516): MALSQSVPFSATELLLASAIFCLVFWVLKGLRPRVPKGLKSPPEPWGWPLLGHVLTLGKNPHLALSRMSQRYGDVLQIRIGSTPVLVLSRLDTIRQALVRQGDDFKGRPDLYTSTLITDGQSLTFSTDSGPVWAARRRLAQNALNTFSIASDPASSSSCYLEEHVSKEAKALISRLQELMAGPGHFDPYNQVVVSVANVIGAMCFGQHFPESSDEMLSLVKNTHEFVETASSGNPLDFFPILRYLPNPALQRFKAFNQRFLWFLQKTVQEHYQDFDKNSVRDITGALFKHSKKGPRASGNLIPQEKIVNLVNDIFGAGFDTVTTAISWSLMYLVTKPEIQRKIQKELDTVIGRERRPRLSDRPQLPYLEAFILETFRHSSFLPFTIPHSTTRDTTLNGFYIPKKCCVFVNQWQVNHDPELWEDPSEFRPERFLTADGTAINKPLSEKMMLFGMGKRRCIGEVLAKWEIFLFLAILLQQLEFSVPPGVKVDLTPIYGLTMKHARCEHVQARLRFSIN
Excerpt: as §1, §2

T1 sequence (P10635 whole entry): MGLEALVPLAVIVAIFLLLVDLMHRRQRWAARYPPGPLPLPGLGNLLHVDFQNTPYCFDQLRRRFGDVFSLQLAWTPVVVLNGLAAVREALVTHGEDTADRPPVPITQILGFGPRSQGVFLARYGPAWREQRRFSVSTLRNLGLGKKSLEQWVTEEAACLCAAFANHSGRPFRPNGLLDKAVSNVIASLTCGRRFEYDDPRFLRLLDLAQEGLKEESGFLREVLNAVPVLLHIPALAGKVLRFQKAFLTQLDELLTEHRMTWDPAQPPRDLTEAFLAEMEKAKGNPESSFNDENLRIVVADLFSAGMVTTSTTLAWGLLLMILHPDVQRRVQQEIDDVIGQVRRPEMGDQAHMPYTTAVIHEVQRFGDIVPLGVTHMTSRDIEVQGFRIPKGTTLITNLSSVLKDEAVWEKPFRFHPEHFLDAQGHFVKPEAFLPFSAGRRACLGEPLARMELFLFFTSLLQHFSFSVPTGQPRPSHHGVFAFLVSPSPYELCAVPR

| SMILES | Toleration [1] | half-life at 1 μM (in vitro [2]) [h] | fraction unbound at 4 h (in vitro [3]; beagle) | fraction unbound at 4 h (in vitro [3]) | fraction unbound at 4 h (in vitro [4]; CD-1, mouse, pH 7.4, free fraction in plasma) | fraction unbound at 4 h (in vitro [4]; mouse, pH 7.4, free fraction in plasma) | fraction unbound at 4 h (in vitro [4]; mouse, pH 7.4, plasma protein binding, 1 and 10 μM) | fraction unbound at 4 h (in vitro [5]; pH 7.4, free fraction in plasma) | fraction unbound at 4 h (in vitro [5]; pH 7.4, plasma protein binding, 1 and 10 μM) | involvement of CYP2D6 in metabolism (CYP2D6) | involvement of CYP1A2 in metabolism (CYP1A2) |
| --- | --- | --- | --- | --- | --- | --- | --- | --- | --- | --- | --- |
| Cc1cccc(Nc2nc(-c3ccc(-c4ccccc4)cc3)cs2)n1 [IND24, (4-Biphenyl-4-yl-thiazol-2-yl)-(6-methyl-pyridin-2-yl)-amine] | well tolerated | > 1 |  |  |  |  |  |  |  |  |  |
| Cc1ccnc(Nc2nc(-c3ccc(-c4ccccn4)s3)cs2)c1 [IND81, (4-Methyl-pyridin-2-yl)-[4-(5-pyridin-2-yl-thiophen-2-yl)-thiazol-2-yl]-amine] |  |  | ~0.57 | 0.04 to 0.07 | ~0.57 | 0.06 to 0.09 | 0.04 to 0.07 | ~0.57 | 0.04 to 0.07 | most likely to be involved | most likely to be involved |
